Earlier results in patent US8318912B2, “Targeted immune conjugate comprising an antibody to glycophorin A and a M2e peptide” (priority 2006, dated 2012).

Molecular target: vitamin B12-binding protein
Conditions: alternative docking pair to biotin-avidin; read-out: Kd of vitamin B12 bound by vitamin B12-binding protein

Substance: cyanocobalamin [vitamin B12]
- Kd: 0.1 nM
